In patent publication US11439631B2, “Use of a glutarimide derivative to treat diseases related to the aberrant activity of cytokines” (“CHEMIMMUNE THERAPEUTICS” LIMITED LIABILITY COMPANY, priority 2017, dated 2022):

What was measured:
mouse model of psoriasis = assay: Mouse model of psoriasis (Aldar cream, 5% imiquimod): ear thickness and clinical signs; format: in vivo, female Balb/c mice; conditions: Compound 1 30 mg/kg, Neotigason 5 mg/kg, M ± m, n = 20
Procedure: (§1) The induction of psoriasis in mice was carried out according to the standard procedure [European Journal of Pharmacology. 2015. V. 756. P. 43-51]. Aldar cream (5% imiquimod) was applied to female Balb/c mice on the inner side of the right ear once daily by 30 mg/mouse for 7 days (0-6th day). Vaseline was applied to the intact animals. […] Euthanasia was carried out 24 hours later (7th day) after the last application of the Aldar cream. Daily on the 0, 2nd, 3rd, 4th, 5th, 6th day, the thickness of the right ear was measured in the morning before the next application of the Aldar cream and before the euthanasia. After the euthanasia, blood was collected from the heart cavities, serum was isolated. The content of MCP1 was determined in blood serum by an enzyme-linked immunosorbent assay method, using test systems Mouse CCL2 (MCP-1) Uncoated ELISA Kit (Invitrogen).
2011. V. 88(1-2). P. 100-113].

[1] = test system: non-infectious pneumonia induced by cigarette smoke extract; assay: Non-infectious pneumonia induced by cigarette smoke extract, lung histology; format: in vivo, male Balb/c mice; conditions: 30 mg/kg intragastric daily day 7-27, 5-point scale; M ± m, n = 12
Procedure: The induction of non-infectious pneumonia in mice was carried out according to the standard procedure [Zhang Yl, Cao J, Chen Y, Chen P, Peng H, Cai S, Luo H, Wu SJ. […] Male Balb/c mice were intraperitoneally administered with cigarette smoke extract (CSE, 0.45 ml/20 mg) at 0, 11th, 15th, 17th, 19th and 22nd day. The CSE was prepared as follows: 5 cigarettes were burnt, using a vacuum pump, the smoke was filtered to remove particles and collected in a vessel containing a phosphate saline buffer. […] Euthanasia was carried out on the 28th day. The right lung lobe was fixed in 10% neutral formalin solution, passed through the alcohols of ascending concentrations to xylene, and embedded in paraffin by standard procedures. Deparaffinated 5-micron shears were stained with hematoxylin-eosin and the histological analysis was carried out.
Each lesion was evaluated according to a 5-point scale: 1 point—the inflammatory infiltrate occupies 0-20% of the area of the histological preparation under study, 2 point—the inflammatory infiltrate occupies 21-40% of the area of the histological preparation under study, 3 points—the inflammatory infiltrate occupies 41-60% of the area of the histological preparation under study, 4 points—the inflammatory infiltrate occupies 61-80% of the area of the histological preparation under study, 5 points—the inflammatory infiltrate occupies 81-100% of the area of the histological preparation under study. Alveolar destruction index (DI) as the percentage of the damaged alveoli relative to the total number of alveoli was also calculated.

MCP-1 (CCL2) = assay: MCP-1 level in blood serum of mice on the psoriasis model (ELISA); format: in vivo, female Balb/c mice; conditions: day 7, 30 mg/kg intragastric, M ± m, n = 10
Procedure: as §1

[2] = test system: thermal pain irritation (hot plate); assay: Thermal pain irritation model hot plate; format: in vivo, Balb/c mice; conditions: intragastric administration
Procedure: The model of thermal pain irritation “hot plate” was carried out according to the standard procedure [Valdman A. V., Ignatov Y. D. Central mechanisms of pain. L.: Nauka, 1976]. The test compound was administered to Balb/c mice intragastrically, once. After 1, 4, 6, 12, 24 hours after the administration of the preparation, the “hot plate” test was carried out. To conduct the “hot plate” test, the mice were placed on the hot plate, the temperature (+55±1° C.) of which is constant. The time of first manifestations of the pain response in mice (paw licking, jumping) was registered and the mean latent time of the threshold of pain sensitivity (TPS, sec) in each group was calculated.

[3] = test system: non-infectious pneumonia induced by poly I:C; assay: Non-infectious pneumonia induced by intranasal administration of poly I:C to mice (BAL neutrophils, lung histology); format: in vivo, female Balb/c mice
Procedure: The induction of pneumonia in mice was carried out according to the standard procedure [Eur Respir J. 2013 V. 41(5). […] Female Balb/c mice were intranasally administered with 8 μg/kg of polyinosine-polycytidylic acid (poly I:C) in 30 μl of PBS on days 1, 2, 3 and 4. Then at days 15, 16, 17 and 18, in the same volume 2 μg/kg of poly I:C were administered to the animals. […] All mice were sacrificed on the 19th day of the study. The bronchus from the right lung was pinched by the ligature, the left lung was washed 3 times with 0.8 ml of the sterile PBS. After each administration of PBS into the lung, the gentle massage of the lung was carried out, PBS was drained by gravity. Finally, the final volume of the resulting bronchoalveolar lavage (BAL) was considered and written. A number of neutrophils was evaluated in the BAL (using the Diff-Quik staining). For histological study, the right lung lobe was fixed in 10% neutral formalin solution and embedded in paraffin by the standard procedure. Deparaffinated 5-micron shears were stained with hematoxylin-eosin. Each lesion was evaluated according to a 5-point scale: 1 point—the inflammatory infiltrate occupies 0-20% of the area of the histological preparation under study, 2 point—the inflammatory infiltrate occupies 21-40% of the area of the histological preparation under study, 3 points—the inflammatory infiltrate occupies 41-60% of the area of the histological preparation under study, 4 points—the inflammatory infiltrate occupies 61-80% of the area of the histological preparation under study, 5 points—the inflammatory infiltrate occupies 81-100% of the area of the histological preparation under study. Alveolar destruction index (DI) as the percentage of the damaged alveoli relative to the total number of alveoli was also calculated.

[4] = 30 mg/kg intragastric daily day 6-19, 5-point scale, M ± m, n = 7

Structure (SMILES): O=C1CCCC(=O)N1CCc1cnc[nH]1 [Compound 1, 1-(2-(1H-imidazol-4-yl)ethyl)piperidine-2,6-dione]
- The gain of the ear thickness at the determined day of study to day 0, Day 2 (mouse model of psoriasis; Day 2, intragastric once daily): 7.8 ± 1.4& %
- The gain of the ear thickness at the determined day of study to day 0, Day 3 (mouse model of psoriasis; Day 3, intragastric once daily): 11.2 ± 1.9& %
- The gain of the ear thickness at the determined day of study to day 0, Day 4 (mouse model of psoriasis; Day 4, intragastric once daily): 33.8 ± 1.6& %
- Clinical signs of psoriasis, Erythema, Day 4 (mouse model of psoriasis; Day 4, score 0-4 (Table 1)): 1.5 ± 0.1*& points
- Clinical signs of psoriasis, Flakes, Day 4 (mouse model of psoriasis; Day 4, score 0-4 (Table 1)): 0.0 ± 0.0& points
- Clinical signs of psoriasis, Thickening, Day 4 (mouse model of psoriasis; Day 4, score 0-4 (Table 1)): 0.9 ± 0.1*& points
- The gain of the ear thickness at the determined day of study to day 0, Day 5 (mouse model of psoriasis; Day 5, intragastric once daily): 46.9 ± 1.6*& %
- The gain of the ear thickness at the determined day of study to day 0, Day 6 (mouse model of psoriasis; Day 6, intragastric once daily): 55.8 ± 0.8*& %
- Clinical signs of psoriasis, Erythema, Day 6 (mouse model of psoriasis; Day 6, score 0-4 (Table 1)): 1.3 ± 0.1*& points
- Clinical signs of psoriasis, Flakes, Day 6 (mouse model of psoriasis; Day 6, score 0-4 (Table 1)): 0.1 ± 0.1& points
- Clinical signs of psoriasis, Thickening, Day 6 (mouse model of psoriasis; Day 6, score 0-4 (Table 1)): 1.3 ± 0.1*& points
- Interstitial pneumonia [1]: 1.08 ± 0.16& points
- Peribronchitis [1]: 0.13 ± 0.07& points
- Perivasculitis [1]: 1.03 ± 0.11& points
- MCP-1 level in blood serum (MCP-1 (CCL2)): 113.7 ± 8.3 & pg/ml
- Increase of the threshold of pain sensitivity in the hot plate test [2]: 2 times
- Interstitial pneumonia [3, 4]: 0.76 ± 0.1& points
- Peribronchitis [3, 4]: 0.73 ± 0.32& points
- Perivasculitis [3, 4]: 0.80 ± 0.31& points
- Neutrophils in 1 μl Score (bronchoalveolar lavage) ([3]; 30 mg/kg intragastric daily day 6-19, M ± m, n = 7): 0.0 ± 0.0& in 1 μl
- Influx of neutrophils into the bronchoalveolar space ([3]; intragastric administration): completely abolished
